# From patent US20230331685A1, “HERBICIDAL COMPOUNDS AND METHODS OF USE THEREOF” (AG Plenus Ltd, priority 2020, published 2023)
# Tests used:
# Assay type in all cases: in vivo
# Arabidopsis thaliana [1] = test: HTPS pre-emergence application on dicot model plant; conditions: for Max Inhibition (%): green area (RGB); for ED50 (g/ha): dose-response of normalized green area
# Description: The plates were placed in a controlled greenhouse in a random order inside a bath which allows flooding irrigation with tap water supplemented with a fertilizer. Applied compounds were dissolved into a final solution of 50% acetone, 49.9% DDW, 0.1% tween-20. A 96 well plate was used as a stock plate for preparing application solutions for 8 repeats. Each row contained different concentrations per chemical. Maximal concentration for application was 1.5 Kg/Ha and dilution factor is 2.5. Chemical application was performed one day after thinning out in a chemical hood. […] applied on first two true leaves in each well using 12 channel pipettes. Data collection: RGB (red, green, blue) data for green area per well was documented using camera. Data is collected at a few time points during the experiment: one day after thinning and before chemical application, two-, six- or nine-days post application. During the last two documentations, visual phenotyping was performed. Data analysis: Given RGB results and visual phenotype scores, a student t-test conducted to compare between treatment and control performance for continuous data (RGB) and Fisher exact test to analyze the non-continuous data (phenotypic scores). Dose-Response curves are generated for each treatment to infer ED50 and max. inhibition parameters, using treatment's log concentration range as the […] and normalized green area. […] Plate imaging performed at 11 and 18 DAA. RGB data for green area per well was documented and used to extract % inhibition. Dose-Response curves were built for each treatment to infer EC50, EC75 and EC90 parameters, using treatment's log concentration range as the independent variable and normalized green area as the dependent variable. Treatments were compared to controls performance given RGB results and using student's t-test (p-val≤0.05). Compounds 104-154 were applied in either or both pre- and post-emergence mode to either or both monocot and dicot model plants, following the methods described above. The compounds were applied as a gradient of concentrations as listed above, from which the ED50 was calculated.
# Arabidopsis thaliana [2] = test: HTPS post-emergence application on miniature dicot model plant; conditions: for Emax: Arabidopsis thaliana, post-emergence, green area (RGB), read-out: Max Inhibition (%); for ED50 (g/ha): dose-response of normalized green area
# Description: The plates were placed in a controlled greenhouse in a random order inside a bath which allows flooding irrigation with tap water supplemented with a fertilizer. Applied compounds were dissolved into a final solution of 50% acetone, 49.9% DDW, 0.1% tween-20. A 96 well plate was used as a stock plate for preparing application solutions for 8 repeats. Each row contained different concentrations per chemical. Maximal concentration for application was 1.5 Kg/Ha and dilution factor is 2.5. Chemical application was performed one day after thinning out in a chemical hood. […] applied on first two true leaves in each well using 12 channel pipettes. Data collection: RGB (red, green, blue) data for green area per well was documented using camera. Data is collected at a few time points during the experiment: one day after thinning and before chemical application, two-, six- or nine-days post application. During the last two documentations, visual phenotyping was performed. Data analysis: Given RGB results and visual phenotype scores, a student t-test conducted to compare between treatment and control performance for continuous data (RGB) and Fisher exact test to analyze the non-continuous data (phenotypic scores). Dose-Response curves are generated for each treatment to infer ED50 and max. inhibition parameters, using treatment's log concentration range as the […] variable and normalized green area. Plate imaging performed at 11 and 18 DAA. RGB data for green area per well was documented and used to extract % inhibition. Dose-Response curves were built for each treatment to infer EC50, EC75 and EC90 parameters, using treatment's log concentration range as the independent variable and normalized green area as the dependent variable. Treatments were compared to controls performance given RGB results and using student's t-test (p-val≤0.05). Compounds 104-154 were applied in either or both pre- and post-emergence mode to either or both monocot and dicot model plants, following the methods described above. The compounds were applied as a gradient of concentrations as listed above, from which the ED50 was calculated.
# Abutilon theophrasti [3] = test: LTP pre-emergence greenhouse test; conditions: Dosage 2000 g/ha
# Description: (§1) A basic panel of 8 weed species (Table 3) were sowed in 4×4×7 cm plastic pots containing inert sand (Sweet sand), intensively washed using osmosis water. Each specie was sowed in a separate pot. In each pot 10-15 seeds were sowed according to the specie viability. Sowing was performed one day before application. The plants were grown for 21 days in a controlled greenhouse (26±2° C. day 20±2° C. night). Hood irrigation (tap water+Shefer 5:3:8 8 mM) was given at a 50% water content by weight. Compounds were soluble in water (DDW), and commercial herbicide control was soluble in formulation B (Table 4). Application was conducted with an industrial sprayer (TeeJet 6502E nozzle) at a rate of 2 kg/ha and spray volume of […]. Pre-emergence advanced dose response experiment application was conducted at six rates between 1-0.0312 kg/ha and spray volume of […]. Percentage of emergence was evaluated at 15 DAA. Visual phenotyping was recorded using a scale of 0-6 (0: no visible effect, 6: maximum effect) at 18 DAA. All experiments included an untreated control, a solvent control and a positive control (commercial herbicide A.I.). […] Statistical analysis for plant emergence determined by % emergence ≥50 and T test (pval≤0.05), as well as Wilcox test (pval≤0.05).
# Alopecurus myosuroides [4] = test: LTP pre-emergence greenhouse test; conditions: Dosage 2000 g/ha
# Description: as §1
# Amaranthus palmeri [5] = test: LTP pre-emergence greenhouse test; conditions: Dosage 2000 g/ha
# Description: as §1
# Ambrosia artemisiifolia [6] = test: LTP pre-emergence greenhouse test; conditions: Dosage 2000 g/ha
# Description: as §1
# Lolium perenne [7] = test: LTP pre-emergence greenhouse test; conditions: Dosage 2000 g/ha
# Description: as §1
# Matricaria chamomilla [8] = test: LTP pre-emergence greenhouse test; conditions: Dosage 2000 g/ha
# Description: as §1
# Poa annua [9] = test: LTP pre-emergence greenhouse test; conditions: Dosage 2000 g/ha
# Description: as §1
# Setaria viridis [10] = test: LTP pre-emergence greenhouse test; conditions: Dosage 2000 g/ha
# Description: as §1
# Setaria viridis [11] = test: LTP post-emergence greenhouse test; conditions: Dosage 2000 g/ha
# Alopecurus myosuroides [12] = test: LTP post-emergence greenhouse test; conditions: Dosage 2000 g/ha
# Lolium perenne [13] = test: LTP post-emergence greenhouse test; conditions: Dosage 2000 g/ha
# Poa annua [14] = test: LTP post-emergence greenhouse test; conditions: Dosage 2000 g/ha
# Amaranthus palmeri [15] = test: LTP post-emergence greenhouse test; conditions: Dosage 2000 g/ha
# Matricaria chamomilla [16] = test: LTP post-emergence greenhouse test; conditions: Dosage 2000 g/ha
# Abutilon theophrasti [17] = test: LTP post-emergence greenhouse test; conditions: Dosage 2000 g/ha
# Ambrosia artemisiifolia [18] = test: LTP post-emergence greenhouse test; conditions: Dosage 2000 g/ha
# [19] = test system: monocot and eudicot weeds species; test: In-planta LTP weed panel, overall assessment; conditions: for growth inhibition (in words): dicot species, either pre- or post-emergence applications
# [20] = test system: monocot and dicot model plants; test: In-planta HTPS, overall assessment; conditions: on monocots
# Description: The plates were placed in a controlled greenhouse in a random order inside a bath which allows flooding irrigation with tap water supplemented with a fertilizer. Applied compounds were dissolved into a final solution of 50% acetone, 49.9% DDW, 0.1% tween-20. A 96 well plate was used as a stock plate for preparing application solutions for 8 repeats. Each row contained different concentrations per chemical. Maximal concentration for application was 1.5 Kg/Ha and dilution factor is 2.5. Chemical application was performed one day after thinning out in a chemical hood. […] applied on first two true leaves in each well using 12 channel pipettes. Data collection: RGB (red, green, blue) data for green area per well was documented using camera. Data is collected at a few time points during the experiment: one day after thinning and before chemical application, two-, six- or nine-days post application. During the last two documentations, visual phenotyping was performed. Data analysis: Given RGB results and visual phenotype scores, a student t-test conducted to compare between treatment and control performance for continuous data (RGB) and Fisher exact test to analyze the non-continuous data (phenotypic scores). […] The compounds were applied as a gradient of concentrations as listed above, from which the ED50 was calculated.
compound,measurement,setting,value
COC(=O)CCSC1CCCC1N (centres unmarked) [Compound 147],Max Inhibition (%),Arabidopsis thaliana [1],100%
same,Emax,Arabidopsis thaliana [2],50%
same,ED50 (g/ha),Arabidopsis thaliana [2],807 g/ha
CCC(O)C(N)CCCCC(=O)O (centres unmarked) [Compound 113],Emax,Arabidopsis thaliana [2],100%
same,ED50 (g/ha),Arabidopsis thaliana [2],26 g/ha
"C[C@H]1OC(=O)N[C@H]1CCCCC(=O)O [Compound 105, 5-((4S,5R)-5-methyl-2-oxooxazolidin-4-yl)pentanoic acid]",Emax,Arabidopsis thaliana [2],94%
same,ED50 (g/ha),Arabidopsis thaliana [2],430 g/ha
CC(N)CCCCC(=O)O (centres unmarked) [Compound 107],Emax,Arabidopsis thaliana [2],100%
same,ED50 (g/ha),Arabidopsis thaliana [2],200 g/ha
CCC(C)C(N)c1cccc(C(=O)O)c1 (centres unmarked) [Compound 108],ED50 (g/ha),Arabidopsis thaliana [1],175 g/ha
same,Max Inhibition (%),Arabidopsis thaliana [1],100%
O=C(O)CCCC1CCCNC1 (centres unmarked) [Compound 154],Emax,Arabidopsis thaliana [2],100%
same,ED50 (g/ha),Arabidopsis thaliana [2],8 g/ha
CC(O)C(N)CCCCC(=O)NS(=O)(=O)CC1CCCC1 (centres unmarked) [Compound 101],Emax,Arabidopsis thaliana [2],100%
same,ED50 (g/ha),Arabidopsis thaliana [2],29 g/ha
CC(C)(C)C(N)c1cccc(C(=O)O)c1 (centres unmarked) [Compound 109],"Herbicidal activity (In-planta), LTP-Pre emergence, Abutilon theophrasti",Abutilon theophrasti [3],0
same,"Herbicidal activity (In-planta), LTP-Pre emergence, Alopecurus myosuroides",Alopecurus myosuroides [4],0
same,"Herbicidal activity (In-planta), LTP-Pre emergence, Amaranthus palmeri",Amaranthus palmeri [5],40
same,"Herbicidal activity (In-planta), LTP-Pre emergence, Ambrosia artemisiifolia",Ambrosia artemisiifolia [6],0
same,"Herbicidal activity (In-planta), LTP-Pre emergence, Lolium perenne",Lolium perenne [7],0
same,"Herbicidal activity (In-planta), LTP-Pre emergence, Matricaria chamomilla",Matricaria chamomilla [8],0
same,"Herbicidal activity (In-planta), LTP-Pre emergence, Poa annua",Poa annua [9],0
same,"Herbicidal activity (In-planta), LTP-Pre emergence, Setaria viridis",Setaria viridis [10],0
same,"Herbicidal activity (In-planta), LTP-Post emergence, Setaria viridis",Setaria viridis [11],0
same,"Herbicidal activity (In-planta), LTP-Post emergence, Alopecurus myosuroides",Alopecurus myosuroides [12],0
same,"Herbicidal activity (In-planta), LTP-Post emergence, Lolium perenne",Lolium perenne [13],0
same,"Herbicidal activity (In-planta), LTP-Post emergence, Poa annua",Poa annua [14],0
same,"Herbicidal activity (In-planta), LTP-Post emergence, Amaranthus palmeri",Amaranthus palmeri [15],40
same,"Herbicidal activity (In-planta), LTP-Post emergence, Matricaria chamomilla",Matricaria chamomilla [16],0
same,"Herbicidal activity (In-planta), LTP-Post emergence, Abutilon theophrasti",Abutilon theophrasti [17],0
same,"Herbicidal activity (In-planta), LTP-Post emergence, Ambrosia artemisiifolia",Ambrosia artemisiifolia [18],40
same,ED50 (g/ha),Arabidopsis thaliana [1],24 g/ha
same,Emax,Arabidopsis thaliana [2],100%
same,ED50 (g/ha),Arabidopsis thaliana [2],200 g/ha
same,growth inhibition (in words),[19],moderate growth inhibition
O=C(O)CCCCC1CCCN1 (centres unmarked) [Compound 148],"Herbicidal activity (In-planta), LTP-Pre emergence, Abutilon theophrasti",Abutilon theophrasti [3],40-60
same,"Herbicidal activity (In-planta), LTP-Pre emergence, Alopecurus myosuroides",Alopecurus myosuroides [4],0
same,"Herbicidal activity (In-planta), LTP-Pre emergence, Amaranthus palmeri",Amaranthus palmeri [5],60-80
same,"Herbicidal activity (In-planta), LTP-Pre emergence, Ambrosia artemisiifolia",Ambrosia artemisiifolia [6],60
same,"Herbicidal activity (In-planta), LTP-Pre emergence, Lolium perenne",Lolium perenne [7],0
same,"Herbicidal activity (In-planta), LTP-Pre emergence, Matricaria chamomilla",Matricaria chamomilla [8],60-80
same,"Herbicidal activity (In-planta), LTP-Pre emergence, Poa annua",Poa annua [9],60-80
same,"Herbicidal activity (In-planta), LTP-Pre emergence, Setaria viridis",Setaria viridis [10],40
same,Emax,Arabidopsis thaliana [2],100%
same,ED50 (g/ha),Arabidopsis thaliana [2],30 g/ha
same,activity (in words),"[19]; dicots and monocots, applied pre-emergence",good to moderate activity
C[C@H](O)[C@@H](N)CCCCC(=O)O [Compound 114],Emax,Arabidopsis thaliana [2],100%
same,ED50 (g/ha),Arabidopsis thaliana [2],40 g/ha
COC(=O)CCCSC1CCCC1N (centres unmarked) [Compound 146],"Herbicidal activity (In-planta), LTP-Pre emergence, Abutilon theophrasti",Abutilon theophrasti [3],0
same,"Herbicidal activity (In-planta), LTP-Pre emergence, Alopecurus myosuroides",Alopecurus myosuroides [4],0
same,"Herbicidal activity (In-planta), LTP-Pre emergence, Amaranthus palmeri",Amaranthus palmeri [5],60-80
same,"Herbicidal activity (In-planta), LTP-Pre emergence, Ambrosia artemisiifolia",Ambrosia artemisiifolia [6],0
same,"Herbicidal activity (In-planta), LTP-Pre emergence, Lolium perenne",Lolium perenne [7],40
same,"Herbicidal activity (In-planta), LTP-Pre emergence, Matricaria chamomilla",Matricaria chamomilla [8],0
same,"Herbicidal activity (In-planta), LTP-Pre emergence, Poa annua",Poa annua [9],0
same,"Herbicidal activity (In-planta), LTP-Pre emergence, Setaria viridis",Setaria viridis [10],60
same,Emax,Arabidopsis thaliana [2],100%
same,ED50 (g/ha),Arabidopsis thaliana [2],80 g/ha
same,growth inhibition (in words),[19],moderate growth inhibition
NC1CCCCC1CCCC(=O)O (centres unmarked) [Compound 152],Emax,Arabidopsis thaliana [2],100%
same,ED50 (g/ha),Arabidopsis thaliana [2],4 g/ha
"C[C@@H]1OC(=O)N[C@@H]1CCCCC(=O)O [Compound 106, 5-((4R,5S)-5-methyl-2-oxooxazolidin-4-yl)pentanoic acid]",Emax,Arabidopsis thaliana [2],82%
same,ED50 (g/ha),Arabidopsis thaliana [2],>1000 g/ha
C[C@@H](O)[C@H](N)CCCCC(=O)O [Compound 115],Emax,Arabidopsis thaliana [2],100%
same,ED50 (g/ha),Arabidopsis thaliana [2],13 g/ha
NC1CCC(CCCC(=O)O)C1 (centres unmarked) [Compound 143],Emax,Arabidopsis thaliana [2],100%
same,ED50 (g/ha),Arabidopsis thaliana [2],61 g/ha
COC(=O)CN(C)C(=O)CCCCC(N)C(C)O (centres unmarked) [Compound 102],Emax,Arabidopsis thaliana [2],90%
same,ED50 (g/ha),Arabidopsis thaliana [2],2 g/ha
O=C(O)CCCCC1CCNC1 (centres unmarked) [Compound 123],Emax,Arabidopsis thaliana [2],100%
same,ED50 (g/ha),Arabidopsis thaliana [2],140 g/ha
CCC(N)CCCCC(=O)O (centres unmarked) [Compound 149],Emax,Arabidopsis thaliana [2],100%
same,ED50 (g/ha),Arabidopsis thaliana [2],90 g/ha
same,activity (in words),[20],very good activity
